Reference: ChEMBL document CHEMBL1201862, “PubChem BioAssay data set” (2004)
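Each compound was tested at five concentrations against cells in 96-well plates for 48 hours. GI50 marks 50% less growth.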 Activity calls are given as the source filed them. Rule as the data show it: active = GI50 up to about 1.1 µM and inactive = higher.

What was measured:
Assay in all cases: DTP human tumour cell line panel, 48 h
SK-MEL-5 = test system: SK-MEL-5
MDA-MB-435 = test system: MDA-MB-435
SN12C = test system: SN12C
SNB-75 = test system: SNB-75
HCT-15 = test system: HCT-15
SF-268 = test system: SF-268
HOP-62 = test system: HOP-62
NCI-H226 = test system: NCI-H226
SW-620 = test system: SW-620
HL-60 = test system: HL-60
RPMI-8226 = test system: RPMI-8226
NCI-H23 = test system: NCI-H23
Malme-3M = test system: Malme-3M
MDA-N = test system: MDA-N
K562 = test system: K562
RXF 393 = test system: RXF 393
PC-3 = test system: PC-3
EKVX = test system: EKVX
DU-145 = test system: DU-145
HCC 2998 = test system: HCC 2998

Measured: GI50

CNc1ccc(-c2nc3cc(C)ccc3o2)cc1
> 100 µM: HCT-15
inactive: SK-MEL-5 > 100 µM | MDA-MB-435 > 100 µM | SN12C > 100 µM | SNB-75 14.7 µM | SF-268 42.7 µM | HOP-62 19.9 µM | NCI-H226 45.3 µM | SW-620 > 100 µM | HL-60 > 100 µM | RPMI-8226 > 100 µM | NCI-H23 > 100 µM | Malme-3M > 100 µM | MDA-N > 100 µM | K562 > 100 µM | RXF 393 22.4 µM | PC-3 > 100 µM | EKVX 32.4 µM | DU-145 > 100 µM | HCC 2998 > 100 µM

O=c1ccc2nc3ccc(O)cc3oc-2c1
inactive: SK-MEL-5 1.6 µM | MDA-MB-435 1.83 µM | SN12C > 100 µM | SNB-75 6.78 µM | SF-268 28.8 µM | HOP-62 17 µM | NCI-H226 27.8 µM | SW-620 13.2 µM | HL-60 10.5 µM | RPMI-8226 3.3 µM | NCI-H23 3.56 µM | Malme-3M 2.72 µM | MDA-N 1.91 µM | K562 6.1 µM | RXF 393 > 100 µM | PC-3 4.69 µM | EKVX > 100 µM | DU-145 21 µM | HCC 2998 25.6 µM
13.5 µM: HCT-15

NC(Cc1ccc(O)cn1)C(=O)O (stereo not given)
> 100 µM: HCT-15
inactive: SK-MEL-5 > 100 µM | MDA-MB-435 84.1 µM | SN12C > 100 µM | SNB-75 > 100 µM | SF-268 > 100 µM | HOP-62 > 100 µM | NCI-H226 > 100 µM | SW-620 > 100 µM | HL-60 33.8 µM | RPMI-8226 > 100 µM | NCI-H23 > 100 µM | Malme-3M > 100 µM | MDA-N > 100 µM | K562 > 100 µM | RXF 393 > 100 µM | PC-3 > 100 µM | EKVX > 100 µM | DU-145 > 100 µM | HCC 2998 > 100 µM

NC(=O)CN1C=CCC(C(N)=O)=C1 [CARICOTAMIDE]
> 100 µM: HCT-15
inactive: SK-MEL-5 > 100 µM | MDA-MB-435 > 100 µM | SN12C > 100 µM | SNB-75 > 100 µM | SF-268 > 100 µM | HOP-62 > 100 µM | NCI-H226 > 100 µM | SW-620 > 100 µM | HL-60 > 100 µM | RPMI-8226 > 100 µM | NCI-H23 > 100 µM | Malme-3M > 100 µM | MDA-N > 100 µM | K562 > 100 µM | RXF 393 > 100 µM | PC-3 > 100 µM | EKVX > 100 µM | DU-145 > 100 µM | HCC 2998 > 100 µM

CC(C)NC(=O)OCc1c(COC(=O)NC(C)C)c(-c2ccc[n+](COC(=O)C(C)(C)C)c2)n2c1CCC2
inactive: SK-MEL-5 > 95.5 µM | MDA-MB-435 > 100 µM | SN12C 54.1 µM | SNB-75 > 89.1 µM | SF-268 57.7 µM | HOP-62 > 71.1 µM | NCI-H226 > 91 µM | SW-620 > 100 µM | HL-60 > 53.2 µM | RPMI-8226 > 100 µM | NCI-H23 53.1 µM | Malme-3M > 100 µM | MDA-N > 100 µM | K562 99.8 µM | RXF 393 30.5 µM | PC-3 > 86.7 µM | EKVX > 100 µM | DU-145 > 91.4 µM | HCC 2998 > 100 µM
> 100 µM: HCT-15

COc1ccc(/N=N/C(=O)NC(CC(C)C)C(=O)NC(C)C(=O)O)cc1 (stereo not given)
1.3 µM: HCT-15
inactive: SK-MEL-5 5.7 µM | MDA-MB-435 1.98 µM | SN12C > 20.4 µM | SNB-75 > 100 µM | SF-268 > 24.3 µM | HOP-62 > 59.6 µM | NCI-H226 > 75.2 µM | SW-620 16.9 µM | HL-60 6.22 µM | RPMI-8226 20.8 µM | NCI-H23 > 86.5 µM | Malme-3M 29.2 µM | MDA-N 10.8 µM | K562 1.54 µM | RXF 393 > 100 µM | PC-3 4.72 µM | EKVX 30 µM | DU-145 6.25 µM | HCC 2998 4.46 µM

Cc1ccc(C(=O)C(Cl)C(Cl)c2ccc(C)cc2)cc1 (stereo not given)
inactive: SK-MEL-5 2.34 µM | MDA-MB-435 2.97 µM | SN12C 1.82 µM | SNB-75 8.22 µM | SF-268 5.56 µM | HOP-62 18.1 µM | NCI-H226 5.04 µM | SW-620 2.39 µM | HL-60 1.24 µM | RPMI-8226 1.56 µM | NCI-H23 9.38 µM | Malme-3M 15.3 µM | MDA-N 2.21 µM | K562 1.49 µM | RXF 393 7.46 µM | PC-3 5 µM | EKVX 5.42 µM | DU-145 5.18 µM | HCC 2998 2.03 µM
1.83 µM: HCT-15

CCCCN(c1ccccc1)c1ncnc2c1cnn2C
35.4 µM: HCT-15
inactive: SK-MEL-5 > 100 µM | MDA-MB-435 37.5 µM | SN12C 65 µM | SNB-75 11.7 µM | SF-268 34.8 µM | HOP-62 38.8 µM | NCI-H226 > 100 µM | SW-620 29.2 µM | HL-60 19.1 µM | RPMI-8226 14.3 µM | NCI-H23 30.1 µM | Malme-3M 25.2 µM | MDA-N 42 µM | K562 28.2 µM | RXF 393 23.4 µM | PC-3 27.5 µM | EKVX 31.8 µM | DU-145 53.6 µM | HCC 2998 36.8 µM

COc1ccc(OC)c2c1C[C@@H]1C(C#N)N3[C@H](Cc4c(OC)ccc(OC)c4[C@@H]3C)C(=O)N1[C@H]2C (stereo not given in full)
inactive: SK-MEL-5 1.75 µM | MDA-MB-435 3.33 µM | SN12C 4.42 µM | SF-268 2.15 µM | HOP-62 22.5 µM | NCI-H226 13.5 µM | SW-620 2.86 µM | HL-60 1.85 µM | RPMI-8226 2.53 µM | NCI-H23 4.5 µM | Malme-3M 2.87 µM | MDA-N 4.33 µM | K562 2.27 µM | RXF 393 1.83 µM | PC-3 3.18 µM | EKVX 5.77 µM | DU-145 22.4 µM | HCC 2998 3.61 µM
active: SNB-75 1.08 µM
3.08 µM: HCT-15
